Assay results taken from patent US8394398B2 (Abbott Laboratories, priority 1997, dated 2013).
pIC50: −log10 of the molar value.

What was measured:
[1] = test system: human coronary artery smooth muscle cells (hCaSMC); assay: 3H-thymidine uptake proliferation assay, hCaSMC; format: cell-based; details: for effect on the antiproliferative activity of zotarolimus in hCaSMC: FIG. 12
Procedure: Experiments were performed to investigate interactions between zotarolimus and the corticosteroid dexamethasone. The effect of dexamethasone on the antiproliferative activity of zotarolimus in human coronary artery smooth muscle ([…]) and endothelial […] determined using an in vitro proliferation assay. The proliferation and migration of vascular smooth muscle cells into the vascular neointima is a characteristic pathologic response seen in restenotic lesions (A. Lafont and P. Libby, The smooth muscle cell: sinner or saint in restenosis and the acute coronary syndromes? […] As a result, in vitro assays which specifically measure the antiproliferative activity of candidate anti-restenotic compounds on human coronary artery smooth muscle and endothelial cells should predict potential anti-restenotic activity in vivo. The tritium incorporation assay is an accurate and sensitive method used in the art to determine cell number and proliferation. Compounds or combinations of compounds which attenuate growth factor-mediated human coronary artery smooth muscle cell […]) proliferation, as measured by the tritium incorporation assay in vitro, are candidate anti-restenotic agents. […] Cell proliferation was monitored by following incorporation of ^3H-thymidine into newly synthesized DNA of cells stimulated by serum and growth factors. Exponentially growing […] were seeded into 96-well flat bottom tissue culture plates at 5,000 cells/well (10,000 cells/well for […]). The cells were allowed to attach overnight. The growth medium was removed the following day and cells were washed twice with unsupplemented (basal) medium to remove traces of serum and growth factors. Basal medium (200 μl) was added to each well and the cells incubated in medium lacking growth factors and serum to starve and synchronize them in the G0 state. After starvation (48 hours for […] and 39 hours for […]) in medium lacking serum and growth factors, the cells were replenished with 200 μl supplemented medium in the absence or presence of drugs at the desired concentrations. […] After a 72-hour incubation period, 25 μl (1 μCi/well) of ^3H-thymidine (Amersham Biosciences) were added to each well. The cells were incubated at 37° C. for 16-18 hours to allow incorporation of ^3H-thymidine into newly synthesized DNA and the cells harvested onto 96-well plates containing bonded glass fiber filters using a cell harvester (Harvester 9600, TOMTEC). […] Controls included medium only, starved cells and cells in complete medium. Drug activity was established by determining the inhibition of ^3H-thymidine incorporation into newly synthesized DNA relative to cells grown in complete medium. […] The final IC50s are means of the 3-4 experiments. In these experiments, the x-axis represents the concentration of the drug being varied. For most of these curves that is zotarolimus alone and in combination with a fixed concentration of dexamethasone. Each graph contains a dexamethasone alone curve and a zotarolimus alone curve. The set of curves in each graph is generated by adding dexamethasone at a fixed concentration (1, 5, 10 or 25 nM) to various concentrations of zotarolimus (0, 0.04, 0.08, 0.8, 4, 8, 40 nM). Each curve represents the dose-response of zotarolimus (whose concentration is given on the x-axis) in the presence of the fixed concentration of dexamethasone given in the legend). […] The concentration eliciting a specific antiproliferative effect was determined using a 4-parameter equation (Equation 1). […]

[2] = test system: human monocytes; assay: cytokine production by LPS-stimulated human monocytes (ELISA); format: cell-based; details: for MCP-1 production by human monocytes in vitro: FIG. 10; for production of TNFα and IL-6 by human monocytes: FIGS. 10 and 11; for Maximal Inhibitory Activity, IL-6 / Maximal Inhibitory Activity, MCP-1 / Maximal Inhibitory Activity, TNF: Monocytes, 24 hours
Procedure: (§1) Experiments were performed to determine the effects of zotarolimus, sirolimus and dexamethasone on the production of TNFα, IL-6 and MCP-1 by activated human monocytes In addition to monocytes and macrophages two other key cell types are involved in the etiology of restenosis, arterial smooth muscle and endothelial cells. These cells are activated and produce cytokines in response to TNFα. […] The activation of cytokine production by human coronary artery smooth muscle and endothelial cells following TNFα treatment was determined by measuring interleukine-8 (IL-8), MCP-1 and IL-6 production. As shown by the results of the experiments described below, the ability of these compounds to inhibit the production of cytokines supports their use in combination as anti-restenotic agents since these cytokines play a role in the development of restenosis. […] After 24 hours, the supernatants were carefully collected and TNFα, IL-6 and MCP-1 levels determined by ELISA. Primary cultures of human coronary artery endothelial and smooth muscle cells were obtained from Cambrex and maintained as described by the vendor. […] After 24 hours the supernatants were removed and replaced with media containing TNFα (5 ng/ml) in the presence and absence of various concentrations of zotarolimus, dexamethasone or sirolimus. The cells were incubated for 24 hours and the supernatants carefully removed and frozen until measurement. Cytokine levels were measured in the supernatants by sandwich ELISA.

[3] = accelerated in vitro elution from PC-1036 coated stents; format: physicochemical
[4] = test system: human coronary artery endothelial cells (hCaEC); assay: 3H-thymidine uptake proliferation assay, hCaEC; format: cell-based
[5] = test system: human coronary artery smooth muscle cells (hCaSMC); assay: cytokine production by TNFα-treated human coronary artery smooth muscle cells (ELISA); format: cell-based; details: TNFα (5 ng/ml), 24 hours; for Maximal Inhibitory Activity, IL-6 / Maximal Inhibitory Activity, Il-8 / Maximal Inhibitory Activity, MCP-1: hCaSMC
Procedure: as §1

[6] = test system: human coronary artery endothelial cells (hCaEC); assay: cytokine production by TNFα-treated human coronary artery endothelial cells (ELISA); format: cell-based; details: TNFα (5 ng/ml), 24 hours
Procedure: as §1

[7] = pharmacokinetics after a single intravenous dose in cynomolgus monkey; format: in vivo; details: single 2.5 mg/kg intravenous dose, blood, n=3

## C[C@@H]1C[C@H]2[C@@H]3CCC4=CC(=O)C=C[C@]4(C)[C@@]3(F)[C@@H](O)C[C@]2(C)[C@@]1(O)C(=O)CO [Dexamethasone]
[1]; Homo sapiens, 3 h, read-out: hCaSMC IC50 Mean ± SEM
  pIC50: 8.03
[1]; dexamethasone alone at or above 10 nM
  inhibition of hCaSMC proliferation: N.D.* Not detectable: Concentrations of dexamethasone alone at or above 10 nM inhibit proliferation by greater than 50% preventing calculation of zotarolimus IC50's in these experiments.
[2]
  MCP-1 production by human monocytes in vitro: dose-dependently inhibit MCP-1 production
  production of TNFα and IL-6 by human monocytes: potently blocks the production of TNFα and IL-6
  Maximal Inhibitory Activity, IL-6: +++ (+++ indicates maximal inhibitory activity of 75-100% of control)
  Maximal Inhibitory Activity, MCP-1: + (+ indicates maximal inhibitory activity of 50-75% of control)
  Maximal Inhibitory Activity, TNF: +++ (+++ indicates maximal inhibitory activity of 75-100% of control)
[3]; stent with 10 μg/mm each drug, 5 μg/mm PC-1036 topcoat, 10 mM acetate buffer pH 4.0, 1% Solutol HS 15, 37° C., 24-hour profile
  burst release at the beginning of elution: slightly larger burst release at the beginning than zotarolimus
[3]; zotarolimus alone vs in the presence of dexamethasone, same conditions
  effect on the elution profile of zotarolimus: little effect on the elution profile of zotarolimus
[4]; FIG. 13
  effect on proliferation of hCaEC: does not affect the proliferation of hCaEC
[4]; Homo sapiens, Endothelial cell, 3 h, read-out: hCaEC IC50 Mean ± SEM
  pIC50: < 5.00
[5]
  block of hCaSMC IL-6 production: 65.7%
  block of hCaSMC IL-8 production: 68.4%
  block of hCaSMC MCP-1 production: 57.2%
  Maximal Inhibitory Activity, IL-6: + (+ indicates maximal inhibitory activity of 50-75% of control)
  Maximal Inhibitory Activity, Il-8: + (+ indicates maximal inhibitory activity of 50-75% of control)
  Maximal Inhibitory Activity, MCP-1: + (+ indicates maximal inhibitory activity of 50-75% of control)
[6]
  Maximal Inhibitory Activity, IL-6: − (− indicates maximal inhibitory activity less than 50% of control)
  Maximal Inhibitory Activity, Il-8: − (− indicates maximal inhibitory activity less than 50% of control)
  Maximal Inhibitory Activity, MCP-1: − (− indicates maximal inhibitory activity less than 50% of control)

## COC1CC2CCC(C)C(O)(O2)C(=O)C(=O)N2CCCCC2C(=O)OC(C(C)CC2CCC(n3ccc(=O)cc3)C(OC)C2)CC(=O)C(C)C=C(C)C(O)C(OC)C(=O)C(C)CC(C)C=CC=CC=C1C (stereo not drawn) [Example 4-pyridone, 40-epi-N-[4′-pyridone]-rapamycin]
[7]
  AUC: 5.59 ng·h/mL

## CO[C@H]1C[C@@H]2CC[C@@H](C)[C@@](O)(O2)C(=O)C(=O)N2CCCC[C@H]2C(=O)O[C@H]([C@H](C)C[C@@H]2CC[C@@H](O)[C@H](OC)C2)CC(=O)[C@H](C)/C=C(\C)[C@@H](O)[C@@H](OC)C(=O)[C@H](C)C[C@H](C)/C=C/C=C/C=C/1C [Rapamycin]
[2]
  MCP-1 production by human monocytes in vitro: dose-dependently inhibit MCP-1 production
  production of TNFα and IL-6 by human monocytes: not demonstrated
  Maximal Inhibitory Activity, IL-6: − (− indicates maximal inhibitory activity less than 50% of control)
  Maximal Inhibitory Activity, MCP-1: +++ (+++ indicates maximal inhibitory activity of 75-100% of control)
  Maximal Inhibitory Activity, TNF: − (− indicates maximal inhibitory activity less than 50% of control)
[5]
  Maximal Inhibitory Activity, IL-6: − (− indicates maximal inhibitory activity less than 50% of control)
  Maximal Inhibitory Activity, Il-8: − (− indicates maximal inhibitory activity less than 50% of control)
  Maximal Inhibitory Activity, MCP-1: − (− indicates maximal inhibitory activity less than 50% of control)
[6]
  Maximal Inhibitory Activity, IL-6: − (− indicates maximal inhibitory activity less than 50% of control)
  Maximal Inhibitory Activity, Il-8: − (− indicates maximal inhibitory activity less than 50% of control)
  Maximal Inhibitory Activity, MCP-1: − (− indicates maximal inhibitory activity less than 50% of control)

## C=CC[C@@H]1/C=C(\C)C[C@H](C)C[C@H](OC)[C@H]2O[C@@](O)(C(=O)C(=O)N3CCCC[C@H]3C(=O)O[C@H](/C(C)=C/[C@@H]3CC[C@@H](O)[C@H](OC)C3)[C@H](C)[C@@H](O)CC1=O)[C@H](C)C[C@@H]2OC [tacrolimus]
[1]; tacrolimus 100 nM
  effect on the antiproliferative activity of zotarolimus in hCaSMC: increased the IC50 of zotarolimus
[1]; tacrolimus 250 nM or greater, zotarolimus 4 nM
  effect on the antiproliferative activity of zotarolimus in hCaSMC: completely blocked the activity of zotarolimus

## 40-epi-N-[2′-pyridone]-rapamycin [Example 2-pyridone]
[7]
  AUC: 2.55 ng·h/mL
